Values belong to the compound of their own block, whether it stands above or below them.
Tests used:
[1] = Stability of Eu complexes on heating, at low pD and with Zn2+ (1H NMR); type: physicochemical
[2] = 17O NMR water exchange (residence time of water co-ligand); type: physicochemical; settings: 17O NMR at 11.7T; for τM^310K, mean residence time of the water co-ligand at 310 K: q = 1 assumed
Procedure: (§1) Relaxivity measurements were performed on a Bruker mq60 Minispec at 1.41T and 37 °C. Longitudinal (T1) relaxation times were measured using an inversion recovery experiment with 10 inversion times of duration ranging between 0.05 × T1 and 5 × T1. Transverse (T2) relaxation times were measured using a CPMG pulse sequence. Relaxivity (r1, r2) was determined from the slope of a plot of 1/T1,2 vs [Gd] for at least 4 concentrations of Gd(III) (data shown in Supplementary Figs. 93–110). The T2 relaxation times of ^17O at 11.7T were estimated from the full-width at half-height of the H2^17O resonance at temperatures ranging from 278 to 368K. Reduced relaxation rates (1/T2r) were calculated by taking the difference of 1/T2 measured in the presence and absence of Gd(III) and dividing by the mole fraction of coordinated water molecules, assuming q = 1. […] However, at the high magnetic field used, and because of the very-fast water exchange rates observed, there was negligible contribution of T1e, and the data were refit to a two-parameter model using the water exchange rate at 310K (τM) and enthalpy of activation for water exchange (ΔH^‡) as adjustable parameters. The Gd-O hyperfine coupling constant, A/ħ, was assumed to be -3.8 × 10^6 rad s^−1 [57], [58]. Samples were prepared in neat H2O adjusted and enriched with a small amount of H2^17O.

[3] = Kinetic stability of Gd complexes monitored by RP-HPLC (acid, base, DTPA, DOTA, ZnCl2); type: physicochemical
Excerpt: The kinetic stability of GBCAs, which reflects the dissociation of the Gd ions from its chelate is used to predict the stability in vivo[10]. The proton-assisted dissociation and direct attack of the endogenous ions are regarded as two main pathways that induced the dissociation of the chelates. The inertness of our Gd(III) complexes was maintained up to 7 days after addition of 1000 equivalents of a competitive ligand, DTPA (Supplementary Fig. 7 & 8). […] The harshest condition tried was setting the complexes of [GdL2A]^−, [GdL2B]^− and [GdDOTA]^− in 1N HCl (Fig. 5, Supplementary Figs. 13 - 15).
Fig. […] Error bars for [GdL2A]^- and [GdL2B]^- refer to the standard error of mean (S.E.M.), statistical data fitting analysis (n = 3; s.e.m.)

[4] = Ex vivo biodistribution 2 h post injection after MRI study (ICP-MS); type: in vivo, C57/Bl6 mice; settings: 0.1 mmol per kg i.v.
Procedure: (§2) Gd concentrations were determined using an Agilent 8800-QQQ ICP-MS system. All samples were diluted with 0.1% Triton X-100 in 5% nitric acid. Lutetium internal standard was steadily introduced to the ICP-MS from an external source during the analysis. A linear calibration curve for each metal ranging from 0.1 ppb to 200 ppb was generated daily for the quantification.
(§3) Imaging was performed at 4.7T using a small-bore animal scanner (Bruker Biospec). Pilot dynamic MRI studies were performed with [GdL1]^−, [GdL2A]^−, [GdL2B]^− and [GdL5]^−; n = 1 per compound. Six to eight weeks male C57/Bl6 mice were anaesthetised with isoflurane (1%–2%) and placed in a specially designed cradle with body temperature maintained at 37 °C. The tail vein was catherised for intravenous delivery of the contrast agent while the animal was positioned in the scanner. A pneumatic pillow was placed on the mouse to enable respiratory monitoring (SA Instruments), and the animal’s body temperature was maintained with warm air. The imaging protocol utilised a three-dimensional fast low angle shot (3D FLASH) with a […] flip angle, 9.00 ms repetition rate, 2.39 ms echo time, 4.8 cm × 2.4 cm × 2.4 cm field of view with a 0.3 mm isotropic resolution. Images were acquired with either 2 or 8 averages giving an acquisition time of 2 min or 8 min, respectively. Baseline images were acquired with both 2 and 8 averages, then the Gd complex (0.1 mmol per kg) was injected intravenously and the sequence with 2 averages was repeated for a period of 10 min to monitor blood clearance. At 10, 30, 45, 60, 75 and 90 min after probe injection, the sequence with 8 averages was repeated to monitor the clearance of contrast from the liver and kidneys. After imaging was performed, the mouse was removed from the scanner and euthanized at 2 h post injection and the tissues were harvested for Gd quantification by ICP-MS.

[5] = Relaxivity measurements at 1.41T and 37 °C; type: physicochemical
Procedure: as §1

[6] = In vivo dynamic T1-weighted MR imaging at 4.7T; set-up: species or system C57/Bl6 mice; settings: 0.1 mmol per kg i.v., 4.7 tesla, n = 1
Procedure: Dynamic T1-weighted MR imaging at 4.7 tesla was performed with C57/Bl6 mice before, during, and after 0.1 mmol per kg injection of each compound (Fig. 7).
as §3

[7] = Gd complexes biodistribution studies (ICP-MS); type: in vivo, BALB/c mice; settings: 0.025 mmol/kg i.v., 5-360 min post injection
Excerpt: Most commercially available Gd(III)-based MRI contrast agents are excreted rapidly and exclusively through the renal pathway. One of the few exceptions is an acyclic compound, Gd-EOB-DTPA, which has a mixed clearance (50% renal, 50% biliary) and is used for imaging of the liver and biliary system. Gd-BOPTA and MS-325 have predominantly renal elimination with <10% elimination through the biliary system. […] We illustrated with our studies that there is a significant variation in the biodistribution profiles despite the small structural differences of the chiral substituents (Supplementary Fig. 20). Gd biodistribution in BALB/c mice was measured by ICP-MS at 5, 15, 30, 60, 180 and 360 min following injection. […] Low levels of Gd(III) are present at 6 h post injection. […] The specific and unusual localisation of [GdL2]^− in the liver makes it a potential hepatobiliary-specific MRI contrast agent.
as §2
Complexes [GdL1]^−, [GdL2]^− and [GdL5]^− were prepared by dissolving in saline solution, while [GdDOTA]^− (Dotarem) was diluted in saline solution. Eight-week-old male BALB/c mice (purchased from BioLASCO, Taiwan) each weighing approximately 25 g were administered with a single dose of 0.025 mmol/kg compound ([GdL1]^−, [GdL2]^−, [GdDOTA]^− and [GdL5]^−; 3 mice per compound per time point) in a 100 μl volume via lateral tail vein injection. The mice were then euthanized, and their blood collected by cardiac puncture at each time point (5, 15, 30, 60, 180 or 360 min post injection). A control group of 4 mice was treated with saline and killed at time point 0. The liver, lung, heart, kidneys, spleen and brain were removed from the animals and weighed. Gd content in tissue and blood samples was quantified via ICP-MS analysis. All experiments were performed in accordance with the NIH Guide for the Care and Use of Laboratory Animals and approved by the Institutional Animal Care and Use Committee of Massachusetts General Hospital or by the Department of Health of the Hong Kong Government and the Animal Subjects Ethics Sub-Committee of Hong Kong Polytechnic University.

[8] = Stability of Yb complexes in 1N DCl by 1H NMR; type: physicochemical
Procedure: (§4) The stability of CuDOTA and CuL2 was compared by UV-Visible spectra. […] Because the ionic radii of Lu(III) is very close to Yb(III), so we used the Yb(III) as a surrogate to study the stability. […] Additionally, we examined in vitro serum stability of ^64CuL2 at 37 °C.

[9] = In vitro serum stability of 64CuL2; type: in vitro ADME; settings: 37 °C
Procedure: as §4

- inertness upon heating ([1]; 90 °C for 3 days, pD 7.0 ([EuL2A]) and 6.0 ([EuL2B])): extreme inertness
- racemization upon heating ([1]; heating for 3 days at pD 1.0): no signs of racemization
Structure (SMILES): CC[C@H]1CN(CC(=O)[O-])[C@@H](CC)CN(CC(=O)[O-])[C@@H](CC)CN(CC(=O)[O-])[C@@H](CC)CN1CC(=O)[O-].[Eu+3] [[EuL2A]^−]
- stability with Zn2+ ([1]; 1 equivalent of Zn^2+): nor did the presence of 1 equivalent of Zn^2+ caused any instability

- ΔH^‡, enthalpy change of activation of water exchange [2]: 10.3 ± 0.478 kcal/mol
- τM^310K, mean residence time of the water co-ligand at 310 K [2]: 6.6 ± 0.4 ns
- decomplexation ([3]; 0.1N NaOH, over 10 days): negligible decomplexation
- decomplexation ([3]; 1N HCl, room temperature, after 487 h): almost no decomplexation
- decomplexation ([3]; 1N HNO3, over 10 days): negligible decomplexation
- decomplexation ([3]; 100 equivalents of zinc chloride at 50 °C, ~100 h): no obvious decomplexation
- stability and interconversion ([3]; one equivalent of DOTA ligand in 1N HCl): no interconversion was observed
- Gd concentration in gall bladder [4]: 854 nmol Gd per gram tissue
- Gd concentration in blood ([4]; listed as GdL2A): 0.49 nmol Gd per gram tissue
- Gd concentration in gall bladder ([4]; listed as GdL2A): 854.21 nmol Gd per gram tissue
- Gd concentration in heart ([4]; listed as GdL2A): 1.82 nmol Gd per gram tissue
- Gd concentration in intestines ([4]; listed as GdL2A): 0.05 nmol Gd per gram tissue
- Gd concentration in kidney ([4]; listed as GdL2A): 20.92 nmol Gd per gram tissue
- Gd concentration in liver ([4]; listed as GdL2A): 10.47 nmol Gd per gram tissue
- Gd concentration in lung ([4]; listed as GdL2A): 3.61 nmol Gd per gram tissue
- Gd concentration in muscle ([4]; listed as GdL2A): 5.18 nmol Gd per gram tissue
- Gd concentration in spleen ([4]; listed as GdL2A): 4.72 nmol Gd per gram tissue
- Gd concentration in stomach ([4]; listed as GdL2A): 3.14 nmol Gd per gram tissue
- Gd concentration in tail ([4]; listed as GdL2A): 2.13 nmol Gd per gram tissue
- r1 relaxivity ([5]; 4.5% w/v HSA (1.4T)): 4.7 mM⁻¹ s⁻¹
- r1 relaxivity ([5]; Human Plasma (1.4T)): 4.7 mM⁻¹ s⁻¹
- r1 relaxivity ([5]; Water (1.4T)): 4.2 mM⁻¹ s⁻¹
Structure (SMILES): CC[C@H]1CN(CC(=O)[O-])[C@@H](CC)CN(CC(=O)[O-])[C@@H](CC)CN(CC(=O)[O-])[C@@H](CC)CN1CC(=O)[O-].[Gd+3] [[GdL2A]^−]
- MR enhancement of liver and gall bladder [6]: very similar behaviour to [GdL2B]^−

- ΔH^‡, enthalpy change of activation of water exchange [2]: 3.82 ± 0.335 kcal/mol
- τM^310K, mean residence time of the water co-ligand at 310 K [2]: 13 ± 0.4 ns
- Gd concentration in blood [4]: 1.04 nmol Gd per gram tissue
- Gd concentration in gall bladder [4]: 139.87 nmol Gd per gram tissue
- Gd concentration in heart [4]: 1.68 nmol Gd per gram tissue
- Gd concentration in intestines [4]: 7.75 nmol Gd per gram tissue
- Gd concentration in kidney [4]: 16.71 nmol Gd per gram tissue
- Gd concentration in liver [4]: 1.64 nmol Gd per gram tissue
- Gd concentration in lung [4]: 1.81 nmol Gd per gram tissue
- Gd concentration in muscle [4]: 4.29 nmol Gd per gram tissue
- Gd concentration in spleen [4]: 6.63 nmol Gd per gram tissue
- Gd concentration in stomach [4]: 11.35 nmol Gd per gram tissue
- Gd concentration in tail [4]: 4.57 nmol Gd per gram tissue
- r1 relaxivity ([5]; 4.5% w/v HSA (1.4T)): 4.5 mM⁻¹ s⁻¹
- r1 relaxivity ([5]; Human Plasma (1.4T)): 4.6 mM⁻¹ s⁻¹
- r1 relaxivity ([5]; Water (1.4T)): 4.1 mM⁻¹ s⁻¹
- Gd biodistribution / elimination profile [7]: near equal renal and hepatic clearance
Structure (SMILES): C[C@H]1CN(CC(=O)[O-])[C@@H](C)CN(CC(=O)[O-])[C@@H](C)CN(CC(=O)[O-])[C@@H](C)CN1CC(=O)[O-].[Gd+3] [[GdL1]^−]
- MR enhancement of liver and gall bladder [6]: some enhancement of the liver and gall bladder

- decrease of radiochemical purity ([9]; 1 h of incubation): less than 0.3%
- decrease of radiochemical purity ([9]; 24 h of incubation): < 6.3%
Structure (SMILES): CC[C@H]1CN(CC(=O)O)[C@@H](CC)CN(CC(=O)[O-])[C@@H](CC)CN(CC(=O)O)[C@@H](CC)CN1CC(=O)[O-].[64Cu+2] [^64CuL2]

The next lines start with the compound.

Structure (SMILES): NCCCC[C@H]1CN(CC(=O)[O-])[C@@H](CCCCN)CN(CC(=O)[O-])[C@@H](CCCCN)CN(CC(=O)[O-])[C@@H](CCCCN)CN1CC(=O)[O-].[Gd+3] [[GdL5]^−]
- ΔH^‡, enthalpy change of activation of water exchange [2]: 4.3 ± 0.598 kcal/mol
- τM^310K, mean residence time of the water co-ligand at 310 K [2]: 16 ± 0.8 ns
- Gd concentration in blood [4]: 0.80 nmol Gd per gram tissue
- Gd concentration in gall bladder [4]: 60.17 nmol Gd per gram tissue
- Gd concentration in heart [4]: 2.18 nmol Gd per gram tissue
- Gd concentration in intestines [4]: 2.68 nmol Gd per gram tissue
- Gd concentration in kidney [4]: over 90 nmol Gd per gram tissue
- Gd concentration in liver [4]: 2.01 nmol Gd per gram tissue
- Gd concentration in lung [4]: 1.49 nmol Gd per gram tissue
- Gd concentration in muscle [4]: 2.97 nmol Gd per gram tissue
- Gd concentration in spleen [4]: 4.43 nmol Gd per gram tissue
- Gd concentration in stomach [4]: 1.11 nmol Gd per gram tissue
- Gd concentration in tail [4]: 2.28 nmol Gd per gram tissue
- Gd concentration in kidney ([4]; listed as GdL5): 93.23 nmol Gd per gram tissue
- r1 relaxivity ([5]; 4.5% w/v HSA (1.4T)): 5.1 mM⁻¹ s⁻¹
- r1 relaxivity ([5]; Human Plasma (1.4T)): 5.1 mM⁻¹ s⁻¹
- r1 relaxivity ([5]; Water (1.4T)): 4.1 mM⁻¹ s⁻¹
- Gd biodistribution / elimination profile [7]: mainly in the kidney and showed no tendency of clearance after 6 h
- MR enhancement of liver and gall bladder [6]: very little enhancement in the liver
- MR signal in the kidneys over time / at 60 min post injection [6]: renal cortex remained strongly enhanced

Structure (SMILES): O=C([O-])CN1CCN(CC(=O)[O-])CCN(CC(=O)[O-])CCN(CC(=O)[O-])CC1.[Yb+3] [[YbDOTA]^−, reference compound]
- decomplexation [8]: decomplexed very fast

Structure (SMILES): CC[C@H]1CN(CC(=O)[O-])[C@@H](CC)CN(CC(=O)[O-])[C@@H](CC)CN(CC(=O)[O-])[C@@H](CC)CN1CC(=O)[O-].[Yb+3] [[YbL2]^−]
- decomplexation [8]: no obvious decomplexation
